Experimental data published in patent publication US6720008B2, “Composition and method for the encapsulation of water-soluble molecules into nanoparticles” (PR Pharmaceuticals, Inc., priority 2002, dated 2004).

Assay: Solubility of eosin in oil and organic solvent
Assay type: physicochemical
Method: A water/oil microemulsion was prepared as follows: 1.0 ml isopropyl myristate was added to 1.4 ml of a surfactant mixture consisting of polyoxyethylene sorbitan monooleate (Tween 80): sorbitan monolaurate (Span 20): ethanol in a 45:30:25 volume ratio. Next, 0.6 ml of a 6% (w/v) eosin Y solution was added and the mixture briefly vortexed until an optically clear, single phase solution resulted (it was confirmed that eosin was not soluble in the oil or the ethyl acetate prior to formulation of the microemulsion nanocapsules).
A water/oil microemulsion was prepared by adding 0.5 ml hexadecane to a surfactant mixture consisting of polyoxyethylene sorbitan monooleate (Tween 80): sorbitan monolaurate (Span 20): ethanol in a 45:30:25 volume ratio. To that mixture, 0.35 ml of a 6% (w/v) eosin Y solution was added. […] Nanoparticles were formed and the eosin encapsulation was measured as described in Example 1. The amount of eosin incorporated into nanocapsules was 98% of the initial quantity added.

## O=C1OC2(c3ccccc31)c1cc(Br)c(O)c(Br)c1Oc1c2cc(Br)c(O)c1Br [eosin, eosin Y]
Conditions of Example 2
  solubility of eosin in hexadecane: not to be soluble
Oil = isopropyl myristate, prior to formulation of the microemulsion nanocapsules
  solubility of eosin in the oil or the ethyl acetate: not soluble
